This passage reports EC50 results from patent US20240279214A1, “ALPHA4 BETA7 INEGRIN ANTAGONISTS AND USES THEREOF” (XinThera, Inc., priority 2022, published 2024).

For this experiment, the target named is T1, a4b1 integrin interaction with VCAM-1 (Homo sapiens, UniProt P05556+P13612).
T1 construct: capture of a4b1 integrin expressing cells Jurkat; endogenous in cells; host or cells: Jurkat
T1 sequence (P13612 34-1032): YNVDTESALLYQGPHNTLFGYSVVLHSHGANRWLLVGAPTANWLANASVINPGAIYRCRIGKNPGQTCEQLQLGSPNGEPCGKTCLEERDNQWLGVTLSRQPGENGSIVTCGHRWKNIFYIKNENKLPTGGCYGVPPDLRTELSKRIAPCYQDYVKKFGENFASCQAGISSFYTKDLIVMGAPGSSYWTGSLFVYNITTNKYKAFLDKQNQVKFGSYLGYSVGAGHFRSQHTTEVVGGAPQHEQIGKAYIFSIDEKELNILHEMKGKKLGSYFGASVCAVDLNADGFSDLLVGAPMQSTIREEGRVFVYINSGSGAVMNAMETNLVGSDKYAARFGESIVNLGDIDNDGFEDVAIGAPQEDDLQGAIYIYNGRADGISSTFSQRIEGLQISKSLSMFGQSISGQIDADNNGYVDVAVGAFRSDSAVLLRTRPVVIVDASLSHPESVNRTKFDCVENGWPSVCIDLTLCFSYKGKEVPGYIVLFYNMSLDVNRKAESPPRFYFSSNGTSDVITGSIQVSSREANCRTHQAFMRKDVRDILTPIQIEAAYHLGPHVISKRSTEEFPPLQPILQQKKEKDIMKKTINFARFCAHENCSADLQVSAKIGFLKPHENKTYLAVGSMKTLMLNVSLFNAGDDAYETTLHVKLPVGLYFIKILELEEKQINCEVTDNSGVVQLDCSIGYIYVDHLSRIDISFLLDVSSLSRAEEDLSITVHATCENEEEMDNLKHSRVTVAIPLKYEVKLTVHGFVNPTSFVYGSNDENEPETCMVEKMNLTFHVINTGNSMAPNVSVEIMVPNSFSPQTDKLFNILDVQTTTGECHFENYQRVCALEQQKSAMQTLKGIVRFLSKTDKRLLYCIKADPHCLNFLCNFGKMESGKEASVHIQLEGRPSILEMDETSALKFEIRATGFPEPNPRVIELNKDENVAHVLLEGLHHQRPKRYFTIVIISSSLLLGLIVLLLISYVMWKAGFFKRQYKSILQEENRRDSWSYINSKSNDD
T1 sequence (P05556 21-798): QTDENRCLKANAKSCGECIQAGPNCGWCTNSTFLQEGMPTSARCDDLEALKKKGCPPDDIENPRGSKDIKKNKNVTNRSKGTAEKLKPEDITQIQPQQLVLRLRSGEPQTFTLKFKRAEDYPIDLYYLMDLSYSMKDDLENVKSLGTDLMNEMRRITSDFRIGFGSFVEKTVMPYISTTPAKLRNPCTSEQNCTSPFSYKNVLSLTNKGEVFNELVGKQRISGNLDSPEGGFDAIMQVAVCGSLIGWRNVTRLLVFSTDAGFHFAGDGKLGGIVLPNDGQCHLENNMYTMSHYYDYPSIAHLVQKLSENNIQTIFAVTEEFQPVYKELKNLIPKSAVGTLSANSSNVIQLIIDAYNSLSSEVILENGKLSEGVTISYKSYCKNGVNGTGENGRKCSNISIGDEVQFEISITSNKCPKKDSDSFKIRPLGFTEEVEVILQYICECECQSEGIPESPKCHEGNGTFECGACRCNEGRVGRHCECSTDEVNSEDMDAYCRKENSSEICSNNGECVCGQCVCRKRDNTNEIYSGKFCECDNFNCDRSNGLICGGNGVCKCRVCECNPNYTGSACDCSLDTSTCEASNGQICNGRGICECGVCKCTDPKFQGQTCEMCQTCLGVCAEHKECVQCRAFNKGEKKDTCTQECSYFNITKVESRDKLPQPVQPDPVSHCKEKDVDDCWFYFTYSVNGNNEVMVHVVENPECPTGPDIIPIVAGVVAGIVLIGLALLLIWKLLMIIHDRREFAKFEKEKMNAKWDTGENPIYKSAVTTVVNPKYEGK
In words: a4b1 Cell Capture Assay (Jurkat cells on VCAM-1 Fc coated plates). Particulars: 50% human serum, 1 mM MgCl2, 1 hour incubation, CellTiter-Glo luminescence. It is filed as cell-based. Here is the method:
The potency of inhibitors in preventing a4b1 integrin interaction with VCAM-1 was measured by monitoring the capture of a4b1 integrin expressing cells Jurkat on recombinant human VCAM-1 Fc chimera protein-coated plates. The protein was a fusion between human VCAM-1 (Phe25-Glu698) Accession #P19320, Accession #AAY82472) and human IgG1 (Pro100-Lys330)] (R&D Systems, Catalog #862-VC). 96-well plates (Thermofisher, Catalog #136102) were coated with the recombinant protein by dispensing 100 μL of 0.25 μg/mL per well. After a quick spin to settle down the coating solution using plate centrifuge, plates were incubated overnight at 4° C. in a moisture chamber. On Day 2, the plates were washed with PBS using a Bluecatbio Blue®Washer (GentleSpin wash, 3 cycles, pressure=1, volume 150 uL). Blocking solution (1.0% BSA in PBS, Sigma, Catalog #A7979) was then added at 200 uL/well, and the plates were quickly spun to settle down blocking buffer and incubated in cell culture incubator at 37° C. and 5% CO2 for 1 hour. The plates were then washed with 0.1% BSA in PBS using a Bluecatbio Blue®Washer (GentleSpin wash, 3 cycles, pressure=1, volume 150 uL). Jurkat cells suspended in assay medium (1 mM MgCl2 25 mM HEPES and 50% human serum, Sigma, Catalog #H4522) at a density of 0.5×10^6 cells/mL were added at 100 uL/well. Each compound evaluated was prepared as a DMSO stock solution. Test compounds were evaluated with a 9-point serial dilution curve and were added to the plates using a Tecan D300e Digital dispenser. Each titration curves were performed in triplicate on the same plate, and most of compounds were retested in different dates multiple times. The plates were shaken at 300 rpm on orbital plate shaker for 3 minutes to mix the cells and compounds, quickly spun to settle the cells and solution, and incubated in cell culture incubator at 37° C. and 5% CO2. After 1 hour incubation, the unbound cells were washed away with RPMI1640 medium supplemented with 1 mM MgCl2 and 1% BSA) (wash buffer) using a Bluecatbio Blue®Washer (MagbeadsSpin wash, 1 cycle, pressure 1, volume=150 uL). After wash buffer removal, A mixture of wash buffer/CellTiter-Glo® Reagent (Pormega, catalog #G7573) at 1:1 (V/V) was added at volume of 100 uL to each well. The plates were placed in a chamber at 25° C. and incubated for 30 minutes. Luminescence was recorded using a Envision plate reader 2105 according to CellTiter-Glo protocol.
The mean luminescence signals from negative control wells without VCAM-1 coating and compound treatment (cells only) was defined as 100% binding inhibition, and the mean luminescence signals from positive control wells with VCAM-1 coating but without compound treatment (VCAM-1 and cells only) was defined as 0% binding inhibition. The luminescence signals from other compound treated wells were normalized in percentage scale accordingly. The normalized mean % inhibition data were plotted against logarithmic compound concentration in nanomolar and were fitted with 4-parameter logistic model to obtain IC50 for each compound.
A word on the EC50: it is the midpoint of the concentration-response curve. Read a low EC50 as greater potency. As to `Cc1cc(Cl)cc2c1-c1cc(c(F)c(C(F)(F)F)c1)[C@H](CC(=O)O)NC(=O)[C@@H](n1cc(CCN3CC(F)C3)c(C(F)(F)F)cc1=O)c1cccc(c1)O2` (single isomer, unassigned) [Example 11], the EC50 is 4580 nM. That is a single-digit micromolar value.

`Cc1cccc2c1-c1cc(c(F)c(C(F)(F)F)c1)[C@H](CC(=O)O)NC(=O)[C@@H](n1cc(CCN3CC(F)C3)c(C(F)(F)F)cc1=O)c1cc(Cl)cc(c1)O2` (relative stereo) [Example 15, [(14R*,17S)-11-chloro-19-fluoro-14-{5-[2-(3-fluoroazetidin-1-yl)ethyl]-2-oxo-4-(trifluoromethyl)pyridin-1-yl}-3-methyl-15-oxo-20-(trifluoromethyl)-8-oxa-16-azatetracyclo[16.3.1.1^{9,13}.0^{2,7}]tricosa-1(22),2(7),3,5,9,11,13(23),18,20-nonaen-17-yl]acetic acid] registered a half-maximal effective concentration (EC50) of 880 nM.

Consider `Cc1cc2cc(c1F)[C@H](CC(=O)O)NC(=O)[C@@H](n1cc(CCN3CC(F)C3)c(C(F)(F)F)cc1=O)c1cc(ccc1F)Oc1cccc(C)c1-2` (relative stereo) [Example 7, [(14R*,17S)-12,19-difluoro-14-{5-[2-(3-fluoroazetidin-1-yl)ethyl]-2-oxo-4-(trifluoromethyl)pyridin-1-yl}-3,20-dimethyl-15-oxo-8-oxa-16-azatetracyclo[16.3.1.1^{9,13}.0^{2,7}]tricosa-1(21),2(7),3,5,9(23),10,12,18(22),19-nonaen-17-yl]acetic acid], for which a half-maximal response (EC50) required 61.5 nM.

`Cc1cc2cc(c1F)[C@H](CC(=O)O)NC(=O)[C@@H](n1cc(CCN3CC(F)C3)c(C(F)(F)F)cc1=O)c1cc(Cl)cc(c1)Oc1cccc(C)c1-2` (single isomer, unassigned) [Example 3] yielded an EC50 of 359 nM.

`Cc1cc(C2CC2)cc2c1-c1cc(c(F)c(C(F)(F)F)c1)[C@H](CC(=O)O)NC(=O)[C@@H](n1cc(CCN3CC(F)C3)c(C(F)(F)F)cc1=O)c1cccc(c1)O2` (relative stereo) [Example 10, [(14R*,17S)-5-cyclopropyl-19-fluoro-14-{5-[2-(3-fluoroazetidin-1-yl)ethyl]-2-oxo-4-(trifluoromethyl)pyridin-1-yl}-3-methyl-15-oxo-20-(trifluoromethyl)-8-oxa-16-azatetracyclo[16.3.1.1^{9,13}.0^{2,7}]tricosa-1(21),2(7),3,5,9,11,13(23),18(22),19-nonaen-17-yl]acetic acid] returned an EC50 of 11900 nM.

Compound `Cc1cc2cc(c1F)[C@H](CC(=O)O)NC(=O)[C@@H](n1cc(CCN3CC(F)C3)c(C(F)(F)F)cc1=O)c1cccc(c1)Oc1cccc(C)c1-2` (relative stereo) [Example 1, rel-2-((5S,8S)-1^4-fluoro-5-(5-(2-(3-fluoroazetidin-1-yl)ethyl)-2-oxo-4-(trifluoromethyl)pyridin-1(2H)-yl)-1^5,2^6-dimethyl-6-oxo-3-oxa-7-aza-1,4(1,3),2(1,2)-tribenzenacyclooctaphane-8-yl)acetic acid] gave a concentration for a half-maximal effect (EC50) of 2080 nM.

`Cc1cc(C)c2c(c1)Oc1cccc(c1)[C@H](n1cc(CCCN(C)C)c(C(F)(F)F)cc1=O)C(=O)N[C@@H](CC(=O)O)c1cn-2nc1C(F)(F)F` (relative stereo) [Example 18, [(13S,16R*)-16-{5-[3-(dimethylamino)propyl]-2-oxo-4-(trifluoromethyl)pyridin-1-yl}-5,7-dimethyl-15-oxo-11-(trifluoromethyl)-2-oxa-9,10,14-triazatetracyclo[15.3.1.1^{9,12}.0^{3,8}]docosa-1(20),3(8),4,6,10,12(22),17(21),18-octaen-13-yl]acetic acid]: the EC50 was 689 nM. This EC50 lies about 3-fold lower than the previous one.
